Laboratory results published in PubChem BioAssay (NCI).
Where “and” joins values, the source holds several entries; their conditions need not be identical. Identical values can stand only once.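 Compound exposure: 48 hours, 5 concentrations, 96-well plates. Abbreviation: GI50, concentration required for 50% inhibition of growth. Definition used: TGI = concentration required for complete inhibition of growth.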

Experiments:
Assay in all cases: growth of human tumour cells (NCI), 48 h
M14 melanoma = system: M14 melanoma
COLO 205 colon = system: COLO 205 colon
EKVX NSCLC = system: EKVX NSCLC
CCRF-CEM leukemia = system: CCRF-CEM leukemia
MDA-MB-435 = system: MDA-MB-435
NCI/ADR-RES ovarian = system: NCI/ADR-RES ovarian
OVCAR-4 ovarian = system: OVCAR-4 ovarian
SK-MEL-28 melanoma = system: SK-MEL-28 melanoma
RXF 393 renal = system: RXF 393 renal
OVCAR-8 ovarian = system: OVCAR-8 ovarian

SMILES | GI50 (M14 melanoma) [µM] | TGI (M14 melanoma) [µM] | GI50 (COLO 205 colon) [µM] | TGI (COLO 205 colon) [µM] | GI50 (EKVX NSCLC) [µM] | TGI (EKVX NSCLC) [µM] | GI50 (CCRF-CEM leukemia) [µM] | TGI (CCRF-CEM leukemia) [µM] | GI50 (MDA-MB-435) [µM] | TGI (MDA-MB-435) [µM] | GI50 (NCI/ADR-RES ovarian) [µM] | TGI (NCI/ADR-RES ovarian) | GI50 (OVCAR-4 ovarian) [µM] | TGI (OVCAR-4 ovarian) [µM] | GI50 (SK-MEL-28 melanoma) [µM] | TGI (SK-MEL-28 melanoma) [µM] | GI50 (RXF 393 renal) [µM] | TGI (RXF 393 renal) [µM] | GI50 (OVCAR-8 ovarian) [µM] | TGI (OVCAR-8 ovarian) [µM]
Cc1c(C#N)cccc1[C@@H](C)Nc1nnc(C)c2cnc(N3CCOCC3)cc12 | 27 | 90.4 | 22.4 | 60.8 | 18.3 | > 100 | 39.2 | > 100 | 18.3 | 49.1 | 35.5 | > 100 µM | 13.9 | 61.8 | 28.3 | > 100 | 11.3 | > 100 | 38.5 | > 100
CCCc1cc(=O)n2c(C(=O)Nc3ccc(F)cc3)c(C(=O)Nc3ccc(F)cc3)sc2n1 | 23.5 | 81 | 160 | > 160 | > 160 | > 160 | > 160 | > 160 | > 160 | > 160 | 134 | > 160 µM | 26.4 | 54.9 | 56.5 | > 160 | 4.41 | 13 | 4.57 | 28
CC(C)OC(=S)Nc1ccc(Cl)c(/C=N/OC(C)(C)C)c1 | – | 39.9 | – | 32.3 | – | 36.3 | – | 36.8 | – | 32.3 | – | 16.8 µM | – | 35.3 | – | 44.8 | – | 30.9 | – | 17
CC/C(Cc1ccccc1)=C(\c1ccc(OCCN2CCCC2)cc1)c1ccc(OC(=O)NCc2ccccc2)cc1 | 1.73 | 3.31 | 2.11 | 4.28 | 2.37 | 7.39 | 2.83 | 7.56 | 1.67 | 3.12 | 2.66 | 10.3 µM | 1.86 | 3.85 | 1.72 | 3.18 | 1.77 | 3.28 | 1.87 | 3.67
COc1ccc(-c2ccc(/C=N/n3c(COc4ccccc4Cl)nn(CN4CCOCC4)c3=S)o2)c([N+](=O)[O-])c1 | 22.3 | 55.8 | 36.6 | > 100 | 54.9 | > 100 | 18.7 | 47.9 | 17.1 | 42.3 | 21.3 | 49.2 µM | 35.1 | > 100 | 46 | > 100 | 22.3 | 61.6 | 39.4 | > 100
C=C1C(O)C2CC(C)(CO)C(=O)C2=C(CC(C)C)C12CC2 (stereo not drawn) | 92.7 | > 100 | > 100 | > 100 | 69.5 | > 100 | 58 | > 100 | 75 | > 100 | > 100 | > 100 µM | > 100 | > 100 | > 100 | > 100 | > 100 | > 100 | 77.8 | > 100
O=C(NCC(F)(F)F)Nc1cccc(-c2cnc3cc(-c4ccc(F)cc4)ccn23)c1 | 1.15 | > 100 | 0.531 | > 26.7 | 5.17 | > 100 | 1.25 | > 82.7 | 0.216 | 0.983 | 1.82 | > 68 µM | 1.66 | > 100 | 9.16 | > 83 | 1.13 | 6.36 | 2.83 | 33.6
CCCCCC(O)C(O)CCC[C@H](O)[C@H]1CC[C@H]([C@H]2CC[C@H]([C@H](O)CCCCCCCCCCCCC3=C[C@H](C)OC3=O)O2)O1 (stereo partly drawn) | 6.98 | 29.9 | – | 14.2 | 6.94 | 26.4 | – | 8.35 | 6.84 | – | 2.75 | 8.99 µM and 29.1 µM | – | 24.1 | 14.7 | 73 | 11.1 | 30.9 | 7.24 | > 100
CS(=O)(=O)c1ccc(Nc2nc(N[C@H]3CCCC[C@H]3N)nc3cc[nH]c(=O)c23)cc1 | 2.16 | 8.83 | 0.865 | 2.35 | 1.3 | 5.41 | 1.24 | > 100 | 1.3 | 3.7 | > 100 | > 100 µM | 1.89 | 9.81 | 1.93 | 5.38 | 1.03 | 3.04 | 2.68 | 20.3
N#CC1=C(N)Oc2c(ccc3ccccc23)C1c1cc(=O)oc2ccc(Cl)cc12 (stereo not drawn) | 0.441 | > 100 | 1.95 | 8.27 | 3.79 | > 100 | 0.407 | 58.1 | 0.244 | 0.947 | 0.522 | 36.8 µM | 4.31 | > 100 | 10.6 | 74.9 | 0.217 | 1.93 | 1.87 | 24
Cc1ccc(-c2nc(/C=N/Nc3cc(C)nc4ccc(Cl)cc34)c(C)o2)cc1 | 1.8 | 3.49 | 1.76 | 3.57 | 1.7 | 3.21 | 1.61 | 4.81 | 1.69 | 3.25 | 2.1 | 4.67 µM | 1.8 | 3.42 | 1.81 | 3.29 | 1.45 | 2.94 | 1.65 | 4.13
CN1Cc2ccccc2/C=C\c2ccccc21 | – | > 100 | – | > 100 | – | 92.7 | – | > 100 | – | > 100 | – | > 100 µM | – | > 100 | – | > 100 | – | > 100 | – | > 100
CNCCCNc1nc2ccccc2c2c(=O)c3cc(OC)ccc3sc12 | 1.99 | 3.82 | 2.06 | 4.4 | 1.72 | 3.7 | 2.39 | 6.08 | 1.8 | 3.24 | 1.82 | 3.64 µM | 1.96 | 4.03 | 1.74 | 3.15 | 1.56 | 3.07 | 2.17 | 5.34
CC(=O)N1CCN(CCNC(=O)n2cc(-c3ccncc3)c(-c3cc(O)cc(Cl)c3)n2)CC1 | 1.23 | 4.87 | 6.26 | 20.9 | 24.6 | > 100 | 11.8 | 66.5 | 2.7 | 15.7 | 22.1 | > 100 µM | 27.8 | > 100 | 3.92 | 16.8 | 3.67 | 17.7 | 12.2 | > 100
NC(=O)c1ccc(Oc2nccc(-c3c(-c4ccc(F)cc4)ncn3C3CCNCC3)n2)cc1 | > 25 | > 25 | > 25 | > 25 | > 25 | > 25 | > 25 | > 25 | > 25 | > 25 | > 25 | > 25 µM | > 25 | > 25 | > 25 | > 25 | > 25 | > 25 | > 25 | > 25
O=C(NCCCc1cn[nH]c1)c1ccc(-c2ccncc2)c(C#Cc2ccc(F)cc2)c1 | < 0.01 | > 54.7 | < 0.01 | 46.1 | 8.39 | > 100 | < 0.01 | > 100 | < 0.01 | > 87.8 | < 0.0116 | > 100 µM | 11.6 | > 100 | 14.4 | > 100 | 3.58 | 19.8 | < 0.01 | > 100
Nc1nc2c(C(=O)NCc3cccs3)nnn2c2cccc(Cl)c12 | – | > 100 | – | > 100 | – | > 100 | – | 55.6 | – | > 100 | – | > 100 µM | – | > 100 | – | > 100 | – | > 100 | – | > 100
O=C(NC(=O)c1c(Cl)nc2sccn12)Nc1ccc(Cl)cc1 | – | > 100 | – | > 100 | – | > 100 | – | > 100 | – | > 100 | – | > 100 µM | – | > 100 | – | > 100 | – | 76.2 | – | > 100
ClCc1ccccc1Cn1cnc2ncnc(Cl)c21 | 1.92 | 5.17 | 4.33 | > 100 | 5.33 | 17.6 | 1.45 | 3.53 | 1.95 | 3.84 | 2.1 | 4.47 µM | 4.94 | 20.5 | 4.47 | 18.7 | 1.65 | 6.5 | 2.74 | 8.74
O=C1CSC(c2ccccc2Cl)N1c1nnc(Cn2cnnc2)o1 (stereo not drawn) | 6.06 | 24.7 | 10.5 | 23.2 | 22.3 | > 100 | 5.83 | > 100 | 2.2 | 5.96 | 6.64 | 83.4 µM | 23.9 | > 100 | 12.3 | 45.8 | 24.3 | 79.4 | 30.2 | > 100
CN=C1C=CC(=C(c2ccc(N(C)C)cc2)c2ccc(N(C)C)cc2)C=C1 | 0.28 | 1.08 | 0.184 | 0.524 | 0.237 | 2.62 | 0.256 | 7.57 | 0.251 | 0.66 | 1.5 | 4.83 µM | 0.378 | 2.7 | 0.482 | 2.07 | 0.207 | 0.583 | – | –
C#C[C@@]1(O)[C@@H](CO)O[C@@H](n2cc(I)c3c(N)ncnc32)[C@@H]1O | 0.49 | 9.51 | 0.0874 | 0.706 | 0.408 | 5.37 | 0.271 | > 100 | 0.473 | 12.8 | 0.0731 | 7.9 µM | 0.809 | > 100 | 1.96 | 11.4 | 0.44 | 2.26 | 0.0456 | –
CN(C)CC1CC/C(=C\c2ccc3c(c2)OCO3)C1=O (stereo not drawn) | – | 15 | – | 18 | – | 39.4 | – | 19.7 | – | 4.43 | – | 12.4 µM | – | 18.9 | – | 22.9 | – | 29.1 | – | 19.2
C1CN(c2nnc(N3CCC3)nn2)C1 | – | 62.1 | – | > 92.4 | – | > 100 | – | > 100 | – | 32.4 | – | > 100 µM | – | > 64.6 | – | > 68.3 | – | > 74.5 | – | > 100
COc1ccc(/C=C/c2c(C(=O)/C=C/c3ccc(C(F)(F)F)cc3)c(C)nc3ccccc23)cc1 | – | – | 2.1 | 4.67 | 1.72 | 4.49 | 0.425 | > 100 | 1.89 | 3.72 | 2.36 | 7.46 µM | 1.81 | 3.67 | 1.82 | 3.47 | 1.74 | 3.52 | 2.22 | > 100
O=C(Nc1ccccc1I(=O)=O)C1CCCCC1 | – | – | > 100 | > 100 | > 100 | > 100 | > 100 | > 100 | > 100 | > 100 | > 100 | > 100 µM | > 100 | > 100 | > 100 | > 100 | > 100 | > 100 | > 100 | > 100
CCOC(=O)C(Cc1ccc(N(CCCl)CCCl)cc1)NC(=O)C(Cc1ccccc1)NC=O (stereo not drawn) | – | 0.31 | – | 0.322 | – | 0.538 | – | 0.241 | – | 0.338 | – | 0.656 µM | – | 0.123 | – | – | – | 0.226 | – | 0.527
